Results published in US11065253B2, “Arylquinazolines” (Merck Patent GmbH, priority 2013, dated 2021).

tested on: phospho-serine 2056 DNA-PK in HCT116 cells; assay: DNA-PK phosphorylation at serine 2056 (cellular), ELISA in bleomycin-treated HCT116 cells; format: cell-based; details: Homo sapiens, HCT-116, 6 h, cellular; HCT116 cells, 10 μM bleomycin, six hours; read-out: IC50 pDNA-PK
Procedure: HCT116 cells were cultivated at 37° C. and 10% CO2 in MEM alpha medium with 10% of foetal calf serum and 2 mM glutamine. The cells were detached from the base of the culture vessels with the aid of trypsin/EDTA, centrifuged off in centrifuge tubes, taken up in fresh medium, and the cell density was determined. 100,000 cells were sown in 1 ml of culture medium per cavity of a 24-well cell culture plate and cultivated overnight. Next day, 10 μM bleomycin (DNA intercalator and inductor of DNA double-strand breaks) and test substances in fresh culture medium were added to the cells, and these were cultivated for a further six hours. […] The 96-well ELISA plates were subsequently treated with a detection antibody (Abcam ab79444: total DNA-PK) and a streptavidin-HRP conjugate. The development of the enzymatic reaction was carried out with the aid of a chemiluminescent reagent, the chemiluminescence was measured with the aid of a Mithras LB940. The signals with the phospho-DNA-PK-specific antibody were standardised to the signal with the antibody against the total protein DNA-PKc. […] The DMSO control was used as blank.

SMILES | IC50
Cc1cnnc(C(O)c2cc(-c3ncnc4cc(N5CCOCC5)ccc34)c(F)cc2Cl)c1 (centres unmarked) [Example 46, [2-Chloro-4-fluoro-5-(7-morpholin-4-yl-quinazolin-4-yl)phenyl]-(5-methylpyridazin-3-yl)methanol] | 5 to 10 µM
OC(c1cc(-c2ncnc3cc(N4CCOCC4)ccc23)c(F)cc1F)c1ncnc2sccc12 (centres unmarked) [Example 90, [2,4-Difluoro-5-(7-morpholin-4-yl-quinazolin-4-yl)-phenyl]thieno[2,3-d}-pyrimidin-4-ylmethanol] | < 0.5 µM
OC(c1ccc2nccn2n1)c1cc(-c2ncnc3cc(N4CCOCC4)ccc23)c(F)cc1Cl (centres unmarked) [Example 56, [2-Chloro-4-fluoro-5-(7-morpholin-4-yl-quinazolin-4-yl)phenyl]-imidazo[1,2-b]pyridazin-6-ylmethanol] | 0.5 to 5 µM
COc1cnc(Cl)c(C(O)c2ccc(F)c(-c3ncnc4cc(N5CCOCC5)ccc34)c2)c1 (centres unmarked) [Example 22, (2-Chloro-5-methoxy-pyridin-3-yl)-[4-fluoro-3-(7-morpholin-4-yl-quinazolin-4-yl)phenyl]-methanol] | < 0.5 µM

Results, then the molecule that gave them:

IC50 | SMILES
< 0.5 µM | OC(c1ccc(F)c(-c2ncnc3cc(N4CCOCC4)ccc23)c1)c1nccnc1Cl (centres unmarked) [Example 54, (3-Chloro-pyrazin-2-yl)-[4-fluoro-3-(7-morpholin-4-yl-quinazolin-4-yl)phenyl]-methanol]
0.5 to 5 µM | COc1ccc([C@H](O)c2ccc(F)c(-c3ncnc4cc(N5CCOCC5)ccc34)c2)nn1 [Example 71, (R)-[4-Fluoro-3-(7-morpholin-4-yl-quinazolin-4-yl)phenyl]-(6-methoxypyridazin-3-yl)methanol]

same assay, conditions: Homo sapiens, HCT-116, cellular DNA-PK phosphorylation at serine 2056, HCT116 cells; read-out: IC50 pDNA-PK

IC50 | SMILES
0.5 to 5 µM | OC(c1cc(-c2ncnc3cc(N4CCOCC4)ccc23)ccc1F)c1cccc2nncn12 (centres unmarked) [Example 373, [2-Fluoro-5-(7-morpholin-4-yl-quinazolin-4-yl)-phenyl]-[1,2,4]-triazolo[4,3-a]pyridin-5-ylmethanol]
0.5 to 5 µM | Cn1c(C(O)c2cc(-c3ncnc4cc(N5CCOCC5)ccc34)c(F)cc2Cl)cccc1=O (centres unmarked) [Example 382, 6-{[2-Chloro-4-fluoro-5-(7-morpholin-4-yl-quinazolin-4-yl)-phenyl]hydroxy-methyl}-1-methyl-1H-pyridin-2-one (Ena 2)]
0.5 to 5 µM | Cn1ncc2c(C(O)c3cc(-c4ncnc5cc(N6CCOCC6)ccc45)ccc3F)ncnc21 (centres unmarked) [Example 391, [2-Fluoro-5-(7-morpholin-4-yl-quinazolin-4-yl)-phenyl]-(1-methyl-1H-pyrazolo[3,4-d}-pyrimidin-4-yl)-methanol]
< 0.5 µM | OC(c1cc(-c2ncnc3cc(N4CCOCC4)ccc23)c(F)cc1Cl)c1ncnc2sccc12 (centres unmarked) [Example 429, [2-Chloro-4-fluoro-5-(7-morpholin-4-yl-quinazolin-4-yl)-phenyl]thieno[2,3-d}-pyrimidin-4-yl-methanol]

same assay, conditions: Homo sapiens, HCT-116, phospho-serine 2056 DNA-PK, bleomycin-treated HCT116 cells; class symbols A-D; read-out: IC50 pDNA-PK

IC50 | SMILES
10 to 30 µM | OCc1csc(C(O)c2cc(-c3ncnc4cc(N5CCOCC5)ncc34)c(F)cc2Cl)n1 (centres unmarked) [Example 141, [2-Chloro-4-fluoro-5-(7-morpholin-4-yl-pyrido[4,3-d}-pyrimidin-4-yl)-phenyl]-(4-hydroxymethyl-thiazol-2-yl)-methanol]
0.5 to 5 µM | COc1ccc(C(O)c2cc(-c3ncnc4cc(N5CCOCC5)ccc34)c(F)cc2F)cc1 (centres unmarked) [Example 120, [2,4-Difluoro-5-(7-morpholin-4-yl-quinazolin-4-yl)-phenyl]-(4-methoxyphenyl)-methanol]
5 to 10 µM | OC(c1cccc(-c2ncnc3cc(N4CCOCC4)sc23)c1)c1nccs1 (centres unmarked) [Example 182, [3-(6-Morpholin-4-ylthieno[3,2-d}-pyrimidin-4-yl)-phenyl]thiazol-2-yl-methanol]
10 to 30 µM | COC(c1ccc(F)c(-c2ncnc3cc(N4CCOCC4)ccc23)c1)c1nccs1 (centres unmarked) [Example 177, 4-[2-Fluoro-5-(-methoxythiazol-2-ylmethyl)phenyl]-7-morpholin-4-yl-quinazoline]

same assay, conditions: Homo sapiens, HCT-116, phospho-serine 2056 DNA-PK, bleomycin-treated HCT116 cells; read-out: IC50 pDNA-PK

SMILES | IC50
Cc1nccnc1[C@@H](O)c1ccc(F)c(-c2ncnc3cc(N4CCOCC4)cnc23)c1 [Example 233, (S)-[4-Fluoro-3-(7-morpholin-4-yl-pyrido[3,2-d}-pyrimidin-4-yl)-phenyl]-(3-methyl-pyrazin-2-yl)-methanol] | 10 to 30 µM
COc1nccnc1C(C(N)=O)c1cc(-c2ncnc3cc(N4CCOCC4)ccc23)ccc1F (centres unmarked) [Example 316, 2-[2-Fluoro-5-(7-morpholin-4-yl-quinazolin-4-yl)-phenyl]-2-(3-methoxy-pyrazin-2-yl)acetamide] | 5 to 10 µM
OC(c1ccc(F)c(-c2ncnc3cc(N4CCOCC4)ccc23)c1)c1nccc2ccoc12 (centres unmarked) [Example 328, [4-Fluoro-3-(7-morpholin-4-yl-quinazolin-4-yl)-phenyl]furo[2,3-c]-pyridin-7-ylmethanol] | < 0.5 µM

Continued, values first:

IC50 | SMILES
0.5 to 5 µM | COc1nccnc1C(C(N)=O)c1cc(-c2ncnc3cc(N4CCOCC4)ccc23)c(F)cc1Cl (centres unmarked) [Example 320, 2-[2-Chloro-4-fluoro-5-(7-morpholin-4-yl-quinazolin-4-yl)-phenyl]-2-(3-methoxy-pyrazin-2-yl)acetamide]
0.5 to 5 µM | OC(c1cc(-c2ncnc3cc(N4CCOCC4)ccc23)ccc1Cl)c1ncnn2cccc12 (centres unmarked) [Example 362, [2-Chloro-5-(7-morpholin-4-yl-quinazolin-4-yl)-phenyl]pyrrolo[2,1-f]-[1,2,4]triazin-4-yl-methanol]
< 0.5 µM | Cc1nccnc1C(O)c1ccc(F)c(-c2ncnc3cc(N4CCOCC4)cnc23)c1 (centres unmarked) [Example 237, [4-Fluoro-3-(7-morpholin-4-yl-pyrido[3,2-d}-pyrimidin-4-yl)-phenyl]-(3-methyl-pyrazin-2-yl)-methanol]
10 to 30 µM | NC(=O)C(c1cccnc1)c1ccc(F)c(-c2ncnc3cc(N4CCOCC4)ccc23)c1 (centres unmarked) [Example 295, 2-[4-Fluoro-3-(7-morpholin-4-yl-quinazolin-4-yl)-phenyl]-2-pyridin-3-ylacetamide]
10 to 30 µM | NC(=O)C(c1ccc(F)c(-c2ncnc3cc(N4CCOCC4)ccc23)c1)c1ncnn2cccc12 (centres unmarked) [Example 299, 2-[4-Fluoro-3-(7-morpholin-4-yl-quinazolin-4-yl)-phenyl]-2-pyrrolo-[2,1-f][1,2,4]triazin-4-ylacetamide]

same assay, conditions: cellular DNA-PK phosphorylation at serine 2056, HCT116 cells; read-out: IC50 pDNA-PK

IC50 | SMILES
< 0.5 µM | COc1ccc(C(O)c2cc(-c3ncnc4cc(N5CCOCC5)ccc34)ccc2Cl)nn1 (centres unmarked) [Example 460, [2-Chloro-5-(7-morpholin-4-yl-quinazolin-4-yl)-phenyl]-(6-methoxy-pyridazin-3-yl)-methanol]
0.5 to 5 µM | Cn1c(C(O)c2cc(-c3ncnc4cc(N5CCOCC5)ccc34)c(F)cc2F)cccc1=O (centres unmarked) [Example 436, 6-{[2,4-Difluoro-5-(7-morpholin-4-yl-quinazolin-4-yl)-phenyl]hydroxy-methyl}-1-methyl-1H-pyridin-2-one]

same assay, conditions: cellular; HCT116 cells, 10 μM bleomycin, six hours; read-out: IC50 pDNA-PK

IC50 | SMILES
< 0.5 µM | Cn1nc(C(O)c2cc(-c3ncnc4cc(N5CCOCC5)ccc34)c(F)cc2Cl)ccc1=O (centres unmarked) [Example 45, 6-{[2-Chloro-4-fluoro-5-(7-morpholin-4-yl-quinazolin-4-yl)phenyl]-hydroxymethyl}-2-methyl-2H-pyridazin-3-one]

same assay, conditions: phospho-serine 2056 DNA-PK, bleomycin-treated HCT116 cells; read-out: IC50 pDNA-PK

IC50 | SMILES
0.5 to 5 µM | [2H]C1([2H])OC([2H])([2H])C([2H])([2H])N(c2ccc3c(-c4cc([C@H](O)c5nccnc5C)ccc4F)ncnc3c2)C1([2H])[2H] [Example 243, (S)-[4-Fluoro-3-[7-(2,2,3,3,5,5,6,6-octadeuterio-morpholin-4-yl)quinazolin-4-yl]phenyl]-(3-methylpyrazin-2-yl)methanol]
